The subject of one assay is P. infestans. Format: cell-based, Phytophthora infestans.
For assay [1], the system named is Puccinia triticina strain BT06M215. Nature of the assay: in planta intensity of infection of wheat leaves by Puccinia triticina. In kind it is in vivo. From the text:
This experiment illustrates the effect of the crude extract (YE) of P. aphidis, synthetic (E)-2-octyl-2-pentenedioic acid (PA), extracted 2-octyl-2 pentenedioic acid from Pseudozyma aphidis in methanol, Rhapsody® (Bacillus subtilis) and Amistart (azoxystrobin) at 0.1% on the intensity of infection of wheat leaf fragments by uredospores of Puccinia triticina strain BT06M215. Rhapsody® (Bacillus subtilis) and Amistar® (azoxystrobin) are commercially available fungicidal solutions. P. titicina strain BT06M215 was isolated from untreated wheat leaves in France.
All fungicidal products were prepared in a volume of water corresponding to 200 L/ha. […]
For each experimental condition tested, 18 replicates of one wheat leaf were tested. […] Disease assessment (intensity of infection) on the first leaf of each wheat plantlets is monitored at 8 to 15 days post inoculation.

For assay [2], the system named is Phytophthora infestans strain Pi61. Format: in vivo. Particulars: in methanol, applied at 150 g/ha; Shirlan applied at 200 g/ha (FIGS. 10a, 10b).
Assay [3] relates to Zymoseptoria tritici strain Mg Tri-R6. In kind it is in vivo. Particulars: wheat; in methanol, applied at 100 gr/ha; Proline applied at 0.8 L/ha (FIGS. 7a, 7b).
Assay [4] deals with B. cinerea. Nature of the assay: bio-assay in liquid medium (PDB) with B. cinerea as indicator strain. In kind it is cell-based, Botrytis cinerea. To be noted: at both a pH of 3 and a pH of 5 (FIG. 1). The procedure:
2-octyl-2 pentenedioic acid was also evaluated for antifungal activity using bio-assay in liquid medium using B. cinerea as an indicator strain. The bio-assay was carried out in PDB liquid medium.
The bio-assay for determination of antifungal activity was set-up based on the procedure as described in Stammler and Speakman, 2006. Microtiter Method to Test the Sensitivity of Botrytis cinerea to Boscalid. Journal of Phytopathology, 154, 7-8, p 508-510. This bio-assay is based on dilution of the antimicrobial agent and determination of growth inhibition of a sensitive indicator strain, in this case Botrytis cinerea. The bio-assay was performed in 96-well microtiter plates and included micro-dilutions of the antimicrobial agent in a liquid growth medium, where each well was inoculated with a standardized number of fungal spores of the indicator strain. After incubation (no agitation, 18° C. in darkness for 5 days), the results were obtained by measurement of fungal growth by photometer at 405 nm and the values were corrected by comparison with the blanks (cultures without the antimicrobial compound). The ED (effective dose) values are compared with reference standard fungicides.

Assay [5] concerns B. cinerea. Nature of the assay: bio-assay with tomato leaves against B. cinerea. In kind it is in vivo, Botrytis cinerea. An excerpt: The untreated control (#2, only 70% ethanol) was taken as a reference for the maximal infection rate.

The record followed here is patent US20230371507A1 (priority 2020, published 2023).

Read-outs that look alike come from different tables or passages of the source.

Consider `CCCCCCCC/C(=C\CC(=O)O)C(=O)O` [2-octyl-2 pentenedioic acid (synthetic), (E)-2-octyl-2-pentenedioic acid], for which the ED90 in the assay on P. infestans (pH 4.6, V8 juice liquid media) was 41 ppm; with P. infestans (pH 6.2, V8 juice liquid media) it was 42 ppm; in the assay with P. infestans (pH 8.0, V8 juice liquid media), “Not detected”. Besides, the “efficacy against Puccinia triticina compared to Rhapsody” value in assay [1] (Rhapsody applied at 2.0 L/ha (FIGS. 3a, 3b)) was “comparable efficacy”. In addition, the “efficacy against Phytophthora infestans compared to Shirlan (fluazinam)” value in assay [2] was “comparable efficacy”.
Turning to `CCCCCCCCC(=CCC(=O)O)C(=O)O` [2-octyl-2 pentenedioic acid], in assay [3], the “efficacy against Zymoseptoria tritici compared to Proline” value is recorded as “comparable efficacy”. Also, the ED90 with P. infestans (pH 4.6, V8 juice liquid media) was 37 ppm; in the assay with P. infestans (pH 6.2, V8 juice liquid media), 41 ppm; in the assay on P. infestans (pH 8.0, V8 juice liquid media), “Not detected”. For the same compound, in the assay on B. cinerea [4], the “efficacy against B. cinerea” value was “excellent efficacy”. Besides, in assay [1] (in methanol, applied at 100 g/ha, Amistar applied at 1 L/ha (FIGS. 4a, 4b)), the “efficacy against Puccinia triticina compared to Amistar” value is reported as “comparable efficacy”.
`CC(=O)O` [Sample 3, Acetic acid]: the “effect on B. cinerea infection (in words)” value in the assay on B. cinerea [5] was “inhibited B. cinerea infection”.
